Patent US8383616B2, “Aryl isoxazole compounds with antitumoural activities” (Sigma-Tau Industrie Farmaceutiche Riunite SpA, priority 2008, dated 2013)

Assays:
Hsp90 = target: T1, Hsp90 (Homo sapiens, UniProt P07900); test: Fluorescence polarization (FP) binding assay, displacement of GM-BODIPY; settings: GM-BODIPY tracer, 125 nM Hsp90, 4 h at 4° C.; read-out: F.P. binding assay IC50
T1 construct: purchased Stressgen SPP-776
Protocol: Fluorescence Polarization (FP)
GM-BODIPY (PerkinElmer, CUSN60342000MG) was previously dissolved in DMSO to obtain 10 mM stock solutions and kept at −20° C. until use.
The compounds were previously dissolved in DMSO to obtain stock solutions and kept at −20° C. The day of experiment, the compounds were prepared by serial dilutions in HFB. Before each use, 0.1 mg/ml Bovine Gamma globulin and 2 mM DTT were freshly added.
The plate was mixed on a shaker at 4° C. for 4 hours, and the FP values in mP (millipolarization units) were recorded. […] Curve fitting was performed using Prism GraphPad software program (GraphPad software, Inc., San Diego, Calif.).
Curve fitting was performed using Prism GraphPad software program (GraphPad software, Inc., San Diego, Calif.).

[1] = tested on: NCI-H460 non-small cell lung carcinoma cells; test: Cytotoxicity assay (sulphorodamine B test), NCI-H460; format: cell-based; settings: Homo sapiens, NCI-H460, 72-h exposure
Protocol: To evaluate the effect of the compounds on cells survival, the sulphorodamine B test was used. To test the effects of the compounds on cell growth, NCI-H460 non-small cell lung carcinoma cells were used. Tumour cells were grown in RPMI 1640 containing 10% fetal bovine serum (GIBCO).
(§1) Tumour cells were seeded in 96-well tissue culture plates at approximately 10% confluence and were allowed to attach and recover for at least 24 h. Varying concentrations of the drugs were then added to each well to calculate their IC50 value (the concentration which inhibits the 50% of cell survival). The plates were incubated at 37° C. for 72 h. At the end of the treatment, the plates were washed by removal of the supernatant and addition of phosphate buffered saline (PBS) 3 times. 200 μl PBS and 50 μl of cold 80% trichloroacetic acid (TCA) were added. The plates were incubated on ice for at least 1 h. TCA was removed, the plates were washed 3 times by immersion in distilled water and dried on paper and at 40° C. for 5 min. Then 200 μl of 0.4% sulphorodamine B in 1% acetic acid were added. The plates were incubated at RT for 30 min. Sulphorodamine B was removed, the plates were washed by immersion in 1% acetic acid for 3 times, then they were dried on paper and at 40° C. for 5 min. Then, 200 μl Tris 10 mM were added, the plates were kept under stirring for 20 min. The cell survival was determined as optical density by a Multiskan spectrofluorimeter at 540 nm. The amount of cells killed was calculated as the percentage decrease in sulphorodamine B binding compared with control cultures.
(§2) The IC50 values were calculated with the “ALLFIT” program.
(§3) The antiproliferative IC50 was evaluated as drug concentration required for 50% reduction of cell growth as compared with untreated controls after 72-h exposure to the drug. The IC50±SD values reported were calculated by ALLFIT program.

[2] = tested on: human epithelial carcinoma cell line A431; test: Cytotoxicity assay (sulphorodamine B test), A431; format: cell-based; settings: Homo sapiens, A-431, 72-h exposure
Protocol: as §1, §2
The antiproliferative activity of novel Hsp90 inhibitors was evaluated on NCI-H460 non-small cell lung carcinoma cells and on a human epithelial carcinoma cell line A431.
as §3

| Structure (SMILES) | IC50 (Hsp90) | IC50 [1] | IC50 [2] |
| --- | --- | --- | --- |
| CCCCC[C@H]1CC[C@H](C(=O)Nc2c(C(=O)NCC)noc2-c2cc(C(C)C)c(O)cc2O)CC1 [Example 20, 5-(2,4-dihydroxy-5-isopropyl-phenyl)-4-[(trans-4-pentyl-cyclohexanecarbonyl)-amino]-isoxazole-3-carboxylic acid ethylamide] | 100 to 1000 nM | 1000 to 10000 nM | 1000 to 10000 nM |
| CCNC(=O)c1cc(C(=O)Nc2c(C(=O)NCC)noc2-c2cc(C(C)C)c(O)cc2O)on1 [Example 22, N^5-(3-(ethylcarbamoyl)-5-(2,4-dihydroxy-5-isopropylphenyl)-isoxazol-4-yl)-N^3-ethylisoxazole-3,5-dicarboxamide] | < 100 nM | 1000 to 10000 nM | 1000 to 10000 nM |
| CCNC(=O)c1noc(-c2cc(Cl)c(O)cc2O)c1NCc1cc(C(=O)OC)no1 [Example 31, Methyl 5-((3-(ethylcarbamoyl)-5-(5-chloro-2,4-dihydroxyphenyl)isoxazol-4-ylamino)methyl)isoxazole-3-carboxylate] | < 100 nM | 1000 to 10000 nM | 1000 to 10000 nM |
| CCNC(=O)c1noc(-c2cc(Cl)c(O)cc2O)c1NCc1cc(CO)no1 [Example 32, 4-((3-(hydroxymethyl)isoxazol-5-yl)methylamino)-5-(5-chloro-2,4-dihydroxyphenyl)-N-ethylisoxazole-3-carboxamide] | 100 to 1000 nM | 1000 to 10000 nM | 1000 to 10000 nM |
| COc1ccc(C(=O)Nc2c(C(=O)NCC(F)(F)F)noc2-c2cc(Cl)c(O)cc2O)cc1 [Example 33, 4-(4-methoxybenzamido)-5-(5-chloro-2,4-dihydroxyphenyl)-N-(2,2,2-trifluoroethyl)-isoxazole-3-carboxamide] | 100 to 1000 nM | 1000 to 10000 nM | 100 to 1000 nM |

Continued, in another order:

| IC50 (Hsp90) | Structure (SMILES) | IC50 [1] | IC50 [2] |
| --- | --- | --- | --- |
| 100 to 1000 nM | CCNC(=O)c1noc(-c2cc(C(C)C)c(O)cc2O)c1NC(=O)C1CCC(C(F)(F)F)CC1 (stereo not drawn) [Example 21, 5-(2,4-dihydroxy-5-isopropyl-phenyl)-4-[(4-trifluoromethyl-cyclohexanecarbonyl)-amino]-isoxazole-3-carboxylic acid ethylamide] | < 100 nM | < 100 nM |
| 100 to 1000 nM | CCNC(=O)c1noc(-c2cc(Cl)c(O)cc2O)c1NCc1ccc(OC)cc1 [Example 27, 4-(4-methoxybenzylamino)-5-(5-chloro-2,4-dihydroxyphenyl)-N-ethylisoxazole-3-carboxamide] | 1000 to 10000 nM | 1000 to 10000 nM |
| 100 to 1000 nM | CCNC(=O)c1noc(-c2cc(Cl)c(O)cc2O)c1NCc1sccc1C [Example 28, 4-((3-methylthiophen-2-yl)methylamino)-5-(5-chloro-2,4-dihydroxyphenyl)-N-ethylisoxazole-3-carboxamide] | 1000 to 10000 nM | 1000 to 10000 nM |
| 100 to 1000 nM | CCNC(=O)c1noc(-c2cc(Cl)c(O)cc2O)c1NC1CCCCC1 [Example 29, 5-(5-chloro-2,4-dihydroxyphenyl)-4-(cyclohexylamino)-N-ethylisoxazole-3-carboxamide] | 1000 to 10000 nM | 1000 to 10000 nM |
| 1000 to 10000 nM | CCNC(=O)c1noc(-c2cc(Cl)c(O)cc2O)c1NC1CCN(C)CC1 [Example 30, 4-(1-methylpiperidin-4-ylamino)-5-(5-chloro-2,4-dihydroxyphenyl)-N-ethylisoxazole-3-carboxamide] | 1000 to 10000 nM | 1000 to 10000 nM |
